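Assay format: 96-well plates, 48-hour exposure. At the TGI there is no net growth.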
Experiments:
Assay in all cases: NCI anticancer screen, dose series, 48 h
786-0 renal = test system: 786-0 renal
HT29 colon = test system: HT29 colon
HS 578T breast = test system: HS 578T breast
MALME-3M melanoma = test system: MALME-3M melanoma
SW-620 colon = test system: SW-620 colon
KM12 colon = test system: KM12 colon
MCF7 breast = test system: MCF7 breast
A549 NSCLC = test system: A549 NSCLC
EKVX NSCLC = test system: EKVX NSCLC
RPMI-8226 leukemia = test system: RPMI-8226 leukemia
MOLT-4 leukemia = test system: MOLT-4 leukemia
UACC-257 melanoma = test system: UACC-257 melanoma
CAKI-1 renal = test system: CAKI-1 renal
U251 CNS = test system: U251 CNS
LOX IMVI melanoma = test system: LOX IMVI melanoma
HCT-15 colon = test system: HCT-15 colon
K-562 leukemia = test system: K-562 leukemia
SR leukemia = test system: SR leukemia
UO-31 renal = test system: UO-31 renal

| SMILES | TGI (786-0 renal) | TGI (HT29 colon) | TGI (HS 578T breast) | TGI (MALME-3M melanoma) | TGI (SW-620 colon) | TGI (KM12 colon) | TGI (MCF7 breast) | TGI (A549 NSCLC) | TGI (EKVX NSCLC) | TGI (RPMI-8226 leukemia) | TGI (MOLT-4 leukemia) | TGI (UACC-257 melanoma) | TGI (CAKI-1 renal) | TGI (U251 CNS) | TGI (LOX IMVI melanoma) | TGI (HCT-15 colon) | TGI (K-562 leukemia) | TGI (SR leukemia) | TGI (UO-31 renal) |
| --- | --- | --- | --- | --- | --- | --- | --- | --- | --- | --- | --- | --- | --- | --- | --- | --- | --- | --- | --- |
| Cc1ccc(S(=O)(=O)Nn2c(O)c(C#N)c(-c3ccc(N(C)C)cc3)c(C#N)c2=O)cc1 | > 50 µM | > 50 µM | > 50 µM | > 50 µM | > 50 µM | > 50 µM | > 50 µM | > 50 µM | > 50 µM | 43.4 µM | > 50 µM | > 50 µM | > 50 µM | > 50 µM | > 50 µM | > 50 µM | > 50 µM |  |  |
| CC1=C[C@@H]2[C@@H](CC(CO)=C[C@H]3[C@@H]4C(C)(C)[C@]4(OCC(C)C)[C@H](OCC(C)C)[C@@H](C)[C@]23O)C1=O | > 6.54 µM | 2.87 µM | 2.71 µM | 2.36 µM | 4.68 µM | > 5.69 µM | 6.89 µM | > 8.32 µM | > 5.64 µM |  | 2.96 µM | 3.72 µM | 3.69 µM | 4.15 µM | 3.06 µM | 2.77 µM | > 4.86 µM | 3.32 µM | > 6.8 µM |
| Cc1nnc2n1N=C(c1cc(F)c(Cl)cc1Cl)/C(=C/c1ccc3c(c1)OCO3)S2 | > 100 µM | > 100 µM | > 100 µM | > 100 µM | > 100 µM | > 100 µM | > 100 µM | > 100 µM | 84.3 µM | > 100 µM | > 100 µM | > 100 µM | > 100 µM | > 100 µM | > 100 µM | > 100 µM | > 100 µM |  | > 100 µM |
| NC(=O)OCc1c(-c2ccccc2)nn(-c2ccccc2)c1COC(N)=O | > 100 µM | > 100 µM |  | > 100 µM | > 100 µM | > 100 µM | > 100 µM | > 100 µM |  | > 100 µM |  | > 100 µM | > 100 µM | > 100 µM |  | > 100 µM |  |  | > 100 µM |
| CCc1ccccc1NC(=O)C(=O)CC(=O)c1sc(Nc2ccccc2Cl)nc1C | 90.9 µM | > 100 µM | > 100 µM |  | 69.9 µM | > 100 µM | 45.9 µM | 80 µM | > 100 µM | 65.6 µM | 49.8 µM | > 100 µM | > 100 µM | > 100 µM | 44 µM | 92 µM | > 100 µM |  | > 100 µM |
| CCN(CC)C(=S)SS(=O)(=O)c1ccc(NC(C)=O)cc1 | 36.5 µM | 70.8 µM | > 100 µM | 31.6 µM | 32 µM | > 100 µM |  | 43.4 µM | > 100 µM | 44 µM |  | 58.7 µM | 41.8 µM | 44.6 µM | 31.8 µM | > 100 µM | > 100 µM | > 51.6 µM | 42.6 µM |
| CN(C)c1nc(=NCc2cccnc2)ss1 | > 10 µM | > 10 µM |  | > 10 µM | > 10 µM | > 10 µM |  | > 10 µM | > 10 µM | > 10 µM | > 10 µM | > 10 µM | > 10 µM |  | > 10 µM | > 10 µM | > 10 µM | > 10 µM |  |
| O=C1OC(CS(=O)(=O)c2ccccc2)CC1O (stereo unspecified) | > 100 µM | > 100 µM |  | > 100 µM | > 100 µM | > 100 µM | > 100 µM | > 100 µM | > 100 µM | > 100 µM | > 100 µM | > 100 µM | > 100 µM | > 100 µM | > 100 µM | > 100 µM | > 100 µM | > 100 µM | > 100 µM |
| CC1c2cc(c3c(c2O)CN([C@@H](C)C2CCCCC2)CO3)C(C)c2cc(c3c(c2O)CN([C@@H](C)C2CCCCC2)CO3)C(C)c2cc(c3c(c2O)CN([C@@H](C)C2CCCCC2)CO3)C(C)c2cc1c1c(c2O)CN([C@@H](C)C2CCCCC2)CO1 (stereo partly specified) | 2.4 µM | 1.26 µM | 3.15 µM | 2.98 µM |  | 2.15 µM |  | > 100 µM | 2.45 µM | 2.15 µM | 9.63 µM | 3.24 µM | 2.95 µM | 2.83 µM |  | 2.92 µM | 2.01 µM | 1.44 µM | 3.21 µM |
| O=C1C=C2CC[C@H]3[C@@H]4CC[C@H](OC(=O)c5cccc6cc7ccccc7nc56)[C@H]4CC[C@@H]3[C@H]2CC1 | > 100 µM | > 100 µM | > 100 µM | > 100 µM | > 100 µM | > 100 µM | > 100 µM | > 100 µM | > 100 µM | > 100 µM | > 100 µM | > 100 µM |  | > 100 µM | 29.7 µM | > 100 µM | > 100 µM |  | > 100 µM |
| CN(C)Cc1cc(/C=C/C(=O)c2ccc(Cl)c(Cl)c2)cc(CN(C)C)c1O | 21.3 µM | 28.6 µM |  | 22.7 µM | 30.1 µM | 26.3 µM | 31.7 µM | 36.8 µM | 30.1 µM | 36.8 µM | 32.3 µM | 25.8 µM | 21.1 µM |  |  |  | 91.2 µM |  | 19.6 µM |
| COc1ccc(C2=NN(C(=O)c3cccnc3)C(O)(c3cc(F)c(Cl)cc3Cl)C2)cc1OC (stereo unspecified) | 62.2 µM | 34.9 µM | 66.9 µM | 59.1 µM | 69.8 µM | > 100 µM |  | > 100 µM | 73.6 µM | 73 µM | > 100 µM | 34.2 µM | > 100 µM | 29.1 µM | 27.2 µM | 35 µM | 69 µM | 53.7 µM | 85 µM |
| O=S(=O)(O)C(Cc1nc2ccccc2[nH]1)S(=O)(=O)OCCC1S(=O)(=O)OCCOS1(=O)=O (stereo unspecified) | > 100 µM | > 100 µM | > 100 µM | > 100 µM | > 100 µM | > 100 µM | > 100 µM | > 100 µM | > 100 µM | > 100 µM | > 100 µM | > 100 µM | > 100 µM | > 100 µM | > 100 µM | > 100 µM | > 100 µM |  | > 100 µM |

Source: PubChem BioAssay (NCI)
